Test results published in patent US8546321B2, “IL-4-derived peptides for modulation of the chronic inflammatory response and treatment of autoimmune diseases” (Kobenhavns Universitet, priority 2008, dated 2013).
Like-named read-outs stand apart in the source and are kept apart here.

Legend:
[1] = test system: cerebellar granular neurons (CGN); assay: Neurite outgrowth assay in cultures of cerebellar granule neurons; type: cell-based, Wistar rats; details: P7 CGN, peptides added after plating, 24 h
Protocol: Cerebellar granular neurons (CGN) were prepared from 3 or 7 postnatal (P) day Wistar rats (Charles River, Sulzfeld, Germany or Taconic, Ejby, Denmark). Cerebella were cleared of meninges and blood vessels, roughly homogenized by chopping, and trypsinized with trypsin from Sigma-Aldrich (Brøndby, Denmark). The neurons were washed in the presence of DNAse 1 and soybean trypsin inhibitor (Sigma-Aldrich), and cellular debris was pelleted by centrifugation before plating. For single-cell culture experiments, P7 CGNs were plated at a density of 10,000 cells/well onto uncoated eight-well Lab-Tek chamber slides (NUNC, Slangerup, Denmark) in Neurobasal-A medium supplemented with 0.4% (w/v) BSA. Peptides at various concentrations were added to the medium immediately after plating, and cells were maintained at 37° C. and 5% CO2 for 24 h. Cultures then were fixed, blocked and incubated with polyclonal rabbit antibody against rat GAP-43 (Chemicon, Temecula, Calif., USA) followed by incubation with secondary Alexa Fluor488 goat anti-rabbit antibody (Molecular Probes, Eugene, Oreg., USA) as previously described (Neiiendam et al., 2004). The immunostained cultures were all recorded by computer-assisted fluorescence microscopy using a Nikon Diaphot inverted microscope (Nikon, Japan) equipped with a Nikon Plane 20× objective. Images were captured with a charge-coupled device video camera (Grundig Electronics, Nurnberg, Germany) using the software package Prima developed at the Protein Laboratory (University of Copenhagen, Copenhagen, Denmark). The length of neuronal processes per cell was estimated using the software package Process Length developed at the Protein Laboratory (Ronn et al. 2000). For estimation of neurite outgrowth, at least 200±20 cells were processed for each group in each individual experiment.

[2] = subcutaneous administration, cited from earlier work
[3] = repeated daily dosing; cited from earlier work
[4] = test system: malignancies; details: in this dose and schedule (Whitehead et al., 1998); cited from earlier work
[5] = test system: psoriasis; details: correcting imbalances in immune functions (Martin 2003); cited from earlier work

## AERLKTIMREKYSKS (Variant of fragment of interleukin-4) [SEQ ID NO: 4]
[1]
  neuritogenic response from primary neurons: induce a neuritogenic response

## rhulL-4: Escherichia coli-derived recombinant human interleukin-4
[2]; as high as 10 μg/kg administered 3 times/week
  safety and tolerability: safe and well tolerated
[2]; doses as high as 5 μg/kg/day
  safety and tolerability: safe and well tolerated
[3]
  adverse effects: a number of adverse effects
[4]
  antitumor activity: only low antitumor activity
[5]
  benefit in patients with psoriasis: beneficial

## AITLQEIIKTLNSA (Variant of fragment of interleukin-4) [SEQ ID NO: 2]
[1]
  neuritogenic response from primary neurons: induce a neuritogenic response

## AQFHRHKQLIRFLKRA (Variant of fragment of interleukin-4) [SEQ ID NO: 1]
[1]
  neuritogenic response from primary neurons: induce a neuritogenic response

## ARFLKRLDRNLWGG (Variant of fragment of interleukin-4) [SEQ ID NO: 3]
[1]
  neuritogenic response from primary neurons: induce a neuritogenic response
